Article PMC6847200 (2019)

Columns and labels:
Assay in all cases: ITC
Conditions in all cases: 100 mM KCl, 20 mM MgCl2; 50 mM K-HEPES pH 7.5, 30 °C; apparent
[1] = tested on: env1 (RNA, riboswitch) GGGUGUAAUCUCCAAAAUAUGGUUGGGGAGCCUCCACCAGUGAACCGUAAAAUCGCUGUCACCACCC
[2] = tested on: env23 (RNA, riboswitch) GGGUGUAAUUCGGGGGAUUGGCCCCGGAGUAUCCACGACCGGACCAUAAUCCGGUGCAUCCACCC
[3] = tested on: env6 (RNA, riboswitch) GGACGUAAUCCUCCGAACAGGCGGGGGAGCAUCCACCGCCGGGCCUUAACCCGGUGUAACCGUCC
[4] = tested on: env1 C47,48U (RNA, riboswitch) GGGUGUAAUCUCCAAAAUAUGGUUGGGGAGUUUCCACCAGUGAACCGUAAAAUCGCUGUCACCACCC
[5] = tested on: env1 A77U (RNA, riboswitch) GGGUGUAAUCUCCAAAAUAUGGUUGGGGAGCCUCCACCAGUGAACCGUAAAAUCGCUGUCUCCACCC
[6] = tested on: env1 U75A (RNA, riboswitch) GGGUGUAAUCUCCAAAAUAUGGUUGGGGAGCCUCCACCAGUGAACCGUAAAAUCGCUGACACCACCC
[7] = tested on: env1 C51U (RNA, riboswitch) GGGUGUAAUCUCCAAAAUAUGGUUGGGGAGCCUCUACCAGUGAACCGUAAAAUCGCUGUCACCACCC
[8] = tested on: env1 C48A (RNA, riboswitch) GGGUGUAAUCUCCAAAAUAUGGUUGGGGAGCAUCCACCAGUGAACCGUAAAAUCGCUGUCACCACCC
[9] = tested on: xpt U51C + U75C76 (RNA, riboswitch) GGACAUAUAAUCGCGUGGAUAUGGCACGCAAGUUUCCACCGGGCACCGUAAAUGUCCGUCACUAUGUCC
[10] = tested on: xpt + U75C76 (RNA, riboswitch) GGACAUAUAAUCGCGUGGAUAUGGCACGCAAGUUUCUACCGGGCACCGUAAAUGUCCGUCACUAUGUCC
[11] = tested on: env1 Δ(U75,C76) (RNA, riboswitch) GGGUGUAAUCUCCAAAAUAUGGUUGGGGAGCCUCCACCAGUGAACCGUAAAAUCGCUGACCACCC
[12] = tested on: env30 (RNA, riboswitch) GGACGUAGCCUGGGGGAUUGGCCCCAGGGCAUCCACGAGCUGGCCGCAACUAGCUGAGACCGUCC
[13] = tested on: env1 C78A (RNA, riboswitch) GGGUGUAAUCUCCAAAAUAUGGUUGGGGAGCCUCCACCAGUGAACCGUAAAAUCGCUGUCAACACCC
[14] = tested on: env1 G21A,C79U (RNA, riboswitch) GGGUAUAAUCUCCAAAAUAUGGUUGGGGAGCCUCCACCAGUGAACCGUAAAAUCGCUGUCACUACCC

SMILES: Nc1nc2c(ncn2COCCO)c(=O)[nH]1
- KD [1]: 560 ± 10 nM

SMILES: Nc1nc2c(ncn2[C@H]2C[C@H](O)[C@@H](CO)O2)c(=O)[nH]1
- KD,2′-dG [2]: 290 ± 50 nM
- KD,2′-dG [3]: 88 ± 3 nM
- KD,dG [4]: 110 ± 10 nM
- KD,dG [5]: 250 ± 10 nM
- KD,dG [6]: 1600 ± 300 nM
- KD,dG [7]: 620 ± 180 nM
- KD,dG [8]: 7.1 ± 1.4 nM
- KD,app [9]: 1600 ± 100 nM
- KD,app [10]: 8100 ± 600 nM
- KD,dG [11]: 240 ± 50 nM
- KD,2′-dG [12]: 2400 ± 900 nM
- KD,dG [13]: 41 000 ± 9000 nM
- KD,dG [14]: 570 ± 30 nM
- KD,2′-dG [1]: 34 ± 1 nM

SMILES: Nc1nc2c(ncn2CCC(CO)CO)c(=O)[nH]1
- KD [1]: 2000 ± 100 nM

SMILES: Nc1nc2c(ncn2[C@@H]2O[C@H](CO)[C@@H](O)[C@H]2O)c(=O)[nH]1
- KD,rG [2]: 51 000 ± 4000 nM
- KD,rG [12]: 36 000 ± 1000 nM
- KD,rG [1]: 89 ± 10 nM

SMILES: O=c1[nH]cnc2nc[nH]c12
- KD,app [10]: 21000 ± 2000 nM
